Experimental data reported in BindingDB's records for patent US20250313563 (The Broad Institute, 2025).
Where “and” joins values, the source holds several entries; their conditions need not be identical. Equal entries are not always repeated.

What follows are compounds tested against Glycogen synthase kinase-3 beta (Homo sapiens, UniProt P49841) (assay: TR-FRET Assay).
Procedure: The assay was performed in a white, 384 well, low volume, flat bottom plate (Grenier). […] The kinase activity was quenched with 2 μL of 250 mM EDTA. A 10 μL volume of 40 nM Strepavidin-d2, 2 nM Tb2+-pSer641 antibody in TR-FRET Detection Buffer (Invitrogen) was then added.

Sequence of Glycogen synthase kinase-3 beta (P49841 whole entry): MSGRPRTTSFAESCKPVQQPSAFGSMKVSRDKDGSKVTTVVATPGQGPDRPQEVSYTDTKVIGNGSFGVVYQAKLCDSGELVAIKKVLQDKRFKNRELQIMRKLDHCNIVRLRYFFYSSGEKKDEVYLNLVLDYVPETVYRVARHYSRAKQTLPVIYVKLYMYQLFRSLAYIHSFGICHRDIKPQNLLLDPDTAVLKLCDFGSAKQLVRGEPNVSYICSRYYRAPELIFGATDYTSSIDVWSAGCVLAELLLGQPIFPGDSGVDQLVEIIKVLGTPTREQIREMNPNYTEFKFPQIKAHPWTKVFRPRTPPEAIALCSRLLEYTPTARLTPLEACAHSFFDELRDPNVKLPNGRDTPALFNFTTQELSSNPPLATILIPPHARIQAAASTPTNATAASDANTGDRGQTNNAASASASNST

| SMILES | IC50 |
| --- | --- |
| CC[C@@]1(c2cccc(C(F)(F)F)c2)C2=CN=NC2NC2=C1C(=O)NC[C@@H]2C (some centres undefined) [US20250313563, Compound 945382] | 100 to 1000 nM |
| CC[C@@]1(c2cccc(-c3ccnc(C)c3)c2)C2=CN=NC2NC2=C1C(=O)N[C@]1(CCCOC1)C2 (some centres undefined) [US20250313563, Compound 948152] | 100 to 1000 nM |
| CC[C@@]1(c2cccc(Oc3ncccn3)c2)C2=C(CC(C)(C)CC2=O)NC2N=NC(C(F)(F)F)=C21 (some centres undefined) [US20250313563, Compound 951604] | 100 to 1000 nM |
| CC[C@]1(c2cccc(Cl)c2)C2=C(CC(C)(C)CC2=O)NC2N=NC(Br)=C21 (some centres undefined) [US20250313563, Compound 801314] | < 100 nM and 100 to 1000 nM |
| CC[C@@]1(c2cccc(C(F)F)c2)C2=C(CC(C)(C)NC2=O)NC2N=NC(C(F)(F)F)=C21 (some centres undefined) [US20250313563, Compound 951948] | 100 to 1000 nM |
| CC[C@]1(c2cccc(-c3ccncc3F)c2)C2=CN=NC2NC2=C1C(=O)CC(C)(C)C2 (some centres undefined) [US20250313563, Compound 943518] | 100 to 1000 nM |
| CC[C@]1(c2cccc(C(F)(F)F)c2)C2=C(N=NC2)NC2=C1C(=O)N[C@@H]2C [US20250313563, Compound 945378] | 100 to 1000 nM |
| CC[C@]1(c2cccc(N(C)c3nccc(C)n3)c2)C2=CN=NC2NC2=C1C(=O)CC(C)(C)C2 (some centres undefined) [US20250313563, Compound 945328] | 100 to 1000 nM |
| CC[C@]1(c2cccc(-c3ccnc(C)c3)c2)C2=CN=NC2NC2=C1C(=O)NC(C)(COC)C2 (some centres undefined) [US20250313563, Compound 948521] | 1000 to 5000 nM |
| CC[C@@]1(c2cccc(C3=CN=NC3)c2)C2=C(CC(C)(C)CC2=O)NC2N=NC(C)=C21 (some centres undefined) [US20250313563, Compound 913025] | 100 to 1000 nM |
| CC[C@]1(c2cccc(-c3c(C)cncc3C)c2)C2=CN=NC2NC2=C1C(=O)CC(C)(C)C2 (some centres undefined) [US20250313563, Compound 947658] | < 100 nM and 100 to 1000 nM |
| CC[C@]1(c2cccc(Br)c2)C2=CN=NC2NC2=C1C(=O)[C@H](F)C(C)(C)C2 (some centres undefined) [US20250313563, Compound 835314] | 100 to 1000 nM |
| CC[C@@]1(c2cccc(C(F)(F)F)c2)C2=CN=NC2NC2=C1C(=O)C[C@]1(CCNC1=O)C2 (some centres undefined) [US20250313563, Compound 950324] | 100 to 1000 nM |
| CC[C@]1(c2cccc(Nc3ncccn3)c2)C2=CN=NC2NC2=C1C(=O)CC(C)(C)C2 (some centres undefined) [US20250313563, Compound 945943] | 100 to 1000 nM |
| CC[C@]1(c2cccc(-c3cc(C)nn3C)c2)C2=CN=NC2NC2=C1C(=O)NC(C)(C)C2 (some centres undefined) [US20250313563, Compound 943966] | 100 to 1000 nM |
| CC[C@]1(c2cccc(-c3ccnc4c3CCCC4)c2)C2=C(N=NC2)NC2=C1C(=O)N(Cc1ccccc1)C2 [US20250313563, Compound 948551] | 100 to 1000 nM |
| CC1(C)CC(=O)C2=C(C1)NC1=C(CN=N1)[C@@]21COC2(CN(C(=O)C3(F)CCC3)C2)C1 [US20250313563, Compound 947736] | 100 to 1000 nM |
| CC[C@@]1(c2cccc(OC)c2)C2=C(CC(C)(C)CC2=O)NC2N=NC(C(=O)OC)=C21 (some centres undefined) [US20250313563, Compound 901480] | 100 to 1000 nM |
| CCCS(=O)(=O)c1cccc([C@@]2(CC)C3=CN=NC3NC3=C2C(=O)CC(C)(C)C3)c1 (some centres undefined) [US20250313563, Compound 929447] | < 100 nM and 100 to 1000 nM |
| CC[C@@]1(c2cccc(S(=O)(=O)C(C)C)c2)C2=C(CC(C)(C)NC2=O)NC2N=NC(C)=C21 (some centres undefined) [US20250313563, Compound 947876] | 100 to 1000 nM |

| SMILES | IC50 |
| --- | --- |
| CC[C@@]1(c2cccc(-c3ccncc3Cl)c2)C2=CN=NC2NC2=C1C(=O)NC(C)(C)C2 (some centres undefined) [US20250313563, Compound 948142] | 100 to 1000 nM |
| CC(C)(C)CC1N=NC2=C1[C@@](C)(c1ccccc1)C1=C(CC(C)(C)NC1=O)N2 (some centres undefined) [US20250313563, Compound 114532] | > 5000 nM |
| CC[C@@]1(c2cccc(-c3c(F)cncc3OC)c2)C2=CN=NC2NC2=C1C(=O)CC(C)(C)[C@@H]2F (some centres undefined) [US20250313563, Compound 948548] | 100 to 1000 nM |
| CC[C@]1(c2cccc(-c3ccncc3F)c2)C2=C(CC(C)(C)CC2=O)NC2N=NC(C)=C21 (some centres undefined) [US20250313563, Compound 913052] | 100 to 1000 nM |
| CC[C@@]1(c2cccc(-c3cnn(C)c3)c2)C2=C(CC(C)(C)NC2=O)NC2N=NC(F)=C21 (some centres undefined) [US20250313563, Compound 949011] | 100 to 1000 nM |
| CC[C@@]1(c2cccc(C(F)(F)F)c2)C2=C(N=NC2)NC2=C1C(=O)N(C)[C@H]2C [US20250313563, Compound 913495] | > 5000 nM |
| CC[C@]1(c2cccc(-c3c(F)cncc3OC)c2)C2=CN=NC2NC2=C1C(=O)CC(C)(C)[C@H]2F (some centres undefined) [US20250313563, Compound 948545] | 100 to 1000 nM |
| CC[C@@]1(c2cccc(-c3cc(C)nn3C)c2)C2=CN=NC2NC2=C1C(=O)CC(C)(C)C2 (some centres undefined) [US20250313563, Compound 946097] | 100 to 1000 nM |
| CC[C@@]1(c2cccc(-c3cnn(C(C)(C)C)c3)c2)C2=CN=NC2NC2=C1C(=O)NC(C)(C)C2 (some centres undefined) [US20250313563, Compound 949112] | 100 to 1000 nM and > 5000 nM |
| CC[C@]1(c2cccc(N(C)c3ccnc(OC)c3)c2)C2=CN=NC2NC2=C1C(=O)CC(C)(C)C2 (some centres undefined) [US20250313563, Compound 932642] | 100 to 1000 nM |
| CC[C@]1(c2cccc(C(F)(F)F)c2)C2=CN=NC2NC2=C1C(=O)N(c1ccccc1)CC2 (some centres undefined) [US20250313563, Compound 929474] | 100 to 1000 nM |
| CC[C@]1(c2cccc(C(F)(F)F)c2)C2=CN=NC2NC2=C1C(=O)N(c1cccc(C)c1)CC2 (some centres undefined) [US20250313563, Compound 949040] | 100 to 1000 nM |
| CC[C@]1(c2cccc(-c3ccnc(C)c3)c2)C2=CN=NC2NC2=C1C(=O)N(C)C(C)(C)C2 (some centres undefined) [US20250313563, Compound 949004] | 100 to 1000 nM |
| CC[C@@]1(c2cccc(-c3cncn3C(C)C)c2)C2=CN=NC2NC2=C1C(=O)CC(C)(C)C2 (some centres undefined) [US20250313563, Compound 945725] | < 100 nM and 100 to 1000 nM |
| CC[C@@]1(c2cccc(-c3ccnc(C)c3)c2)C2=CN=NC2NC2=C1C(=O)C[C@]1(CCOC1)C2 (some centres undefined) [US20250313563, Compound 947407] | 1000 to 5000 nM |
| CC[C@]1(c2cccc(S(=O)(=O)C(C)C)c2)C2=C(CC(C)(C)NC2=O)NC2=C1C(C)N=N2 (some centres undefined) [US20250313563, Compound 947870] | 100 to 1000 nM |
| CC[C@]1(c2cccc(C(F)(F)F)c2)C2=C(CC(C)(C)CC2=O)NC2N=NC(Br)=C21 (some centres undefined) [US20250313563, Compound 810466] | 100 to 1000 nM |
| CC(C)(C)CC1=C2C(N=N1)NC1=C(C(=O)CC(C)(C)C1)[C@]21CCc2c(F)cccc21 (some centres undefined) [US20250313563, Compound 791256] | 1000 to 5000 nM |
| CC[C@]1(c2cccc(-c3ccncc3C)c2)C2=CN=NC2NC2=C1C(=O)NC1(CCC1)C2 (some centres undefined) [US20250313563, Compound 948523] | 100 to 1000 nM |
| CC[C@@]1(c2cccc(-c3c(F)cncc3OC)c2)C2=C(N=NC2)NC2=C1C(=O)N(Cc1ccccc1)C2 [US20250313563, Compound 948550] | 100 to 1000 nM |

| SMILES | IC50 |
| --- | --- |
| CC[C@]1(c2cccc(-c3ccnc(C)c3C)c2)C2=CN=NC2NC2=C1C(=O)CC(C)(C)C2 (some centres undefined) [US20250313563, Compound 943516] | 1000 to 5000 nM |
| CC[C@]1(c2cccc(C(F)(F)F)c2)C2=CN=NC2NC2=C1C(=O)N(c1ccn(C)n1)CC2 (some centres undefined) [US20250313563, Compound 949835] | 100 to 1000 nM |
| CC[C@@]1(c2cccc(-c3cc(C)ncc3F)c2)C2=CN=NC2NC2=C1C(=O)CC(C)(C)C2 (some centres undefined) [US20250313563, Compound 927346] | 1000 to 5000 nM |
| CC1(C)CC(=O)C2=C(C1)NC1=C(CN=N1)[C@]21CCN(S(=O)(=O)c2ccccc2)C1 [US20250313563, Compound 951787] | 100 to 1000 nM |
| Cc1ccc(C(=O)N2CC3(C2)C[C@]2(CO3)C3=C(N=NC3)NC3=C2C(=O)CC(C)(C)C3)cc1C [US20250313563, Compound 948038] | < 100 nM and 100 to 1000 nM |
| COC(=O)C1(c2ccccc2)CC2(C1)C1=C(N=NC1)NC1=C2C(=O)CC(C)(C)C1 (centres undefined) [US20250313563, Compound 942344] | 100 to 1000 nM |
| CC[C@@]1(c2cccc(C(F)(F)F)c2)C2=C(N=NC2)NC2=C1C(=O)N(C)[C@@H]2C [US20250313563, Compound 913475] | > 5000 nM |
| CC[C@@]1(c2cccc(-c3ccnn3C)c2)C2=CN=NC2NC2=C1C(=O)N[C@](C)(COC)C2 (some centres undefined) [US20250313563, Compound 947905] | 100 to 1000 nM |
| CCC1(c2cccc(-c3cc(C)nnc3C)c2)C2=C(CC(C)(C)NC2=O)NC2N=NC(C)=C21 (centres undefined) [US20250313563, Compound 948766] | 100 to 1000 nM |
| CC[C@]1(c2cccc(-c3c(C)cnc4ccccc34)c2)C2=C(CC(C)(C)NC2=O)NC2=NN=CC21 (some centres undefined) [US20250313563, Compound 949398] | 100 to 1000 nM |
| CC[C@]1(c2cccc(-c3ccnn3C)c2)C2=CN=NC2NC2=C1C(=O)NC1(CCOCC1)C2 (some centres undefined) [US20250313563, Compound 948516] | 100 to 1000 nM |
| CC[C@@]1(c2cccc(C(F)(F)F)c2)C2=CN=NC2NC2=C1C(=O)N(CC(F)(F)F)CC2 (some centres undefined) [US20250313563, Compound 912206] | 100 to 1000 nM |
| CC[C@@]1(c2cccc(-c3ccnn3C)c2)C2=C(CC(C)(C)CC2=O)NC2N=NC(C)=C21 (some centres undefined) [US20250313563, Compound 913023] | < 100 nM and 100 to 1000 nM |
| CCC1(c2cccc(-c3ccncc3)c2)C2=CN=NC2NC2=C1C(=O)CC(C)(C)C2 (centres undefined) [US20250313563, Compound 883984] | < 100 nM |
| CC[C@@]1(c2cccc(Oc3ncccn3)c2)C2=CN=NC2NC2=C1C(=O)CC(C)(C)C2 (some centres undefined) [US20250313563, Compound 947808] | 100 to 1000 nM |
| CCCn1nccc1-c1cccc([C@]2(CC)C3=CN=NC3NC3=C2C(=O)CC(C)(C)C3)c1 (some centres undefined) [US20250313563, Compound 946093] | 100 to 1000 nM |
| CC[C@]1(c2cccc(C(F)(F)F)c2)C2=C(N=NC2)NC2=C1C(=O)N(C)[C@H]2C [US20250313563, Compound 913473] | 100 to 1000 nM |
| CC[C@]1(c2cccc(-c3cn(C)nc3C(F)(F)F)c2)C2=CN=NC2NC2=C1C(=O)NC(C)(C)C2 (some centres undefined) [US20250313563, Compound 949266] | 100 to 1000 nM |
| CC[C@]1(c2cccc(C(F)(F)F)c2)C2=CN=NC2NC2=C1C(=O)N(c1ccccc1C)CC2 (some centres undefined) [US20250313563, Compound 949128] | 100 to 1000 nM |
